Key:
[1] = molecular target: ALK tyrosine kinase receptor (Homo sapiens) (UniProt Q9UM73); test: Inhibition of recombinant human ALK (1058 to end residues) at 1 uM using KKKSPGEYVNIEFG as substrate after 40 mins in presence of [gamma-33P]ATP by scintillation counting method
[2] = molecular target: Activin receptor type-1B (Homo sapiens) (UniProt P36896); test: Inhibition of recombinant human ALK4 (150 to end residues) at 1 uM using casein as substrate after 40 mins in presence of [gamma-33P]ATP by scintillation counting method
[3] = molecular target: Serine/threonine-protein kinase B-raf (Homo sapiens) (UniProt P15056); test: Inhibition of recombinant human B-raf (416 to end residues) at 1 uM using myelin basic protein as substrate after 40 mins in presence of [gamma-33P]ATP by scintillation counting method
[4] = molecular target: Casein kinase I isoform gamma-3 (Homo sapiens) (UniProt Q9Y6M4); test: Inhibition of recombinant human CK1gamma3 (1 to 330 residues) at 1 uM using KRRRALS(p)VASLPGL as substrate after 40 mins in presence of [gamma-33P]ATP by scintillation counting method
[5] = molecular target: Serine/threonine-protein kinase 35 (Homo sapiens) (UniProt Q8TDR2); test: Inhibition of recombinant full-length human CLIK1 at 1 uM using RSRSRSRSRSRSRSR as substrate after 40 mins in presence of [gamma-33P]ATP by scintillation counting method
[6] = molecular target: Serine/threonine-protein kinase 17A (Homo sapiens) (UniProt Q9UEE5); test: Inhibition of recombinant full-length human DRAK1 at 1 uM using KKLNRTLSFAEPG as substrate after 40 mins in presence of [gamma-33P]ATP by scintillation counting method
[7] = molecular target: Epidermal growth factor receptor (Homo sapiens) (UniProt P00533); test: Inhibition of recombinant human EGFR (696 to end residues) at 1 uM using poly(Glu,Tyr) 4:1 as substrate after 40 mins in presence of [gamma-33P]ATP by scintillation counting method
[8] = molecular target: G protein-coupled receptor kinase 5 (Homo sapiens) (UniProt P34947); test: Inhibition of recombinant full-length human GRK5 at 1 uM using casein as substrate after 40 mins in presence of [gamma-33P]ATP by scintillation counting method
G protein-coupled receptor kinase 5 (Homo sapiens), sequence (P34947 whole entry, looked up): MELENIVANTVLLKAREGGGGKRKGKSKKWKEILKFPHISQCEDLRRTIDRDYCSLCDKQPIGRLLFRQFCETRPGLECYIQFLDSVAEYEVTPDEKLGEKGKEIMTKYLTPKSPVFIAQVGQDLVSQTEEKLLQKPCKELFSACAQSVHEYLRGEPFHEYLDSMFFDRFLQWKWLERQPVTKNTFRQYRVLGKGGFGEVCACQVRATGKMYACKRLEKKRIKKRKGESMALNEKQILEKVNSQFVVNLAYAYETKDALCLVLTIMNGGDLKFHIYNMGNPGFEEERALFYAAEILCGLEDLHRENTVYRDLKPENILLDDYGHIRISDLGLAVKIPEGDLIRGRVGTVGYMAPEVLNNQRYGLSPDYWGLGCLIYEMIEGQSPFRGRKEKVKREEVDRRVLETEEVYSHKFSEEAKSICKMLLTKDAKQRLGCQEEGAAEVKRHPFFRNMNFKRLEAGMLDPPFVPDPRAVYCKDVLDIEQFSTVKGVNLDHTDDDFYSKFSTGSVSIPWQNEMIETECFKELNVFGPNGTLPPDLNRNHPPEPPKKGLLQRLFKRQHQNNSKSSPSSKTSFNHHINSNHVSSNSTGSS

[9] = molecular target: Glycogen synthase kinase-3 beta (Homo sapiens) (UniProt P49841); test: Inhibition of recombinant human GSK3beta (2 to end residues) at 1 uM using YRRAAVPPSPSLSRHSSPHQS(p)EDEEE (phospho GS2 peptide) as substrate after 40 mins in presence of [gamma-33P]ATP by scintillation counting method
[10] = molecular target: Homeodomain-interacting protein kinase 3 (Homo sapiens) (UniProt Q9H422); test: Inhibition of recombinant human HIPK3 (161 to 562 residues) at 1 uM using myelin basic protein as substrate after 40 mins in presence of [gamma-33P]ATP by scintillation counting method
Homeodomain-interacting protein kinase 3 (Homo sapiens), sequence (Q9H422 whole entry, looked up, the tested form may be a part): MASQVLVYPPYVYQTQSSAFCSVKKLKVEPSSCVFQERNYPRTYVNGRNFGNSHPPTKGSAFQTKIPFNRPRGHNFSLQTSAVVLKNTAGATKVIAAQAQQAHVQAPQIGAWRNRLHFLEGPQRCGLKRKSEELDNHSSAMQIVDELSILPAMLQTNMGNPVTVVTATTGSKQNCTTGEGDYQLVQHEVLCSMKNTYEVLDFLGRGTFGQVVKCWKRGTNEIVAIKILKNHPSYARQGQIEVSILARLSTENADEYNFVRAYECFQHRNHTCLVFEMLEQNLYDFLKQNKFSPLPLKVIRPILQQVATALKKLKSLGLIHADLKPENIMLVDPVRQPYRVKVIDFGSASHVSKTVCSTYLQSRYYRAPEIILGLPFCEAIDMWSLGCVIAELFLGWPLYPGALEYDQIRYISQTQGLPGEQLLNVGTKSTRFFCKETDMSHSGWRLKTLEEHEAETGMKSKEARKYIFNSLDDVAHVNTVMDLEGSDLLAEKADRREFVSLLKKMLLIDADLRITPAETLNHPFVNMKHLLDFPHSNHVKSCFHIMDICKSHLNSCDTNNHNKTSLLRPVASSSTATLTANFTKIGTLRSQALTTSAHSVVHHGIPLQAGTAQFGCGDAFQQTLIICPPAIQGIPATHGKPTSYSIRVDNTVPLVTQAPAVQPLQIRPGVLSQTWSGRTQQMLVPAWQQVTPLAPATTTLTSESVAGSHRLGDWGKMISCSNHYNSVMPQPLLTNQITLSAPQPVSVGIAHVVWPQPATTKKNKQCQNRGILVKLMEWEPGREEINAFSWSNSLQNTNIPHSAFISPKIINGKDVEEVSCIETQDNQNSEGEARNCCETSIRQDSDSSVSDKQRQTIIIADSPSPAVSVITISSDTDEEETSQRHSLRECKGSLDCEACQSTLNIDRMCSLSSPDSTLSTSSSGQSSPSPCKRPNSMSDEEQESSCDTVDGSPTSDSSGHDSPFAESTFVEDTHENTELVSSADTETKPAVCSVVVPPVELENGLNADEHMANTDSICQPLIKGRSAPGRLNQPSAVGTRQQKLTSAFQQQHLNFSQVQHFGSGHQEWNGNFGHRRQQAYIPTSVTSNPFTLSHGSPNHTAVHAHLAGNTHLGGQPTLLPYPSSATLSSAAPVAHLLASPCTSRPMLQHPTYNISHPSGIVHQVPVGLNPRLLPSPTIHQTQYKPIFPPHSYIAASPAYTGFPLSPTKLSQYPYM

[11] = molecular target: Insulin-like growth factor 1 receptor (Homo sapiens) (UniProt P08069); test: Inhibition of recombinant human IGF-1R (959 to end residues) at 1 uM using KKKSPGEYVNIEFG as substrate after 40 mins in presence of [gamma-33P]ATP by scintillation counting method
Insulin-like growth factor 1 receptor (Homo sapiens), sequence (P08069 31-736 limits assumed): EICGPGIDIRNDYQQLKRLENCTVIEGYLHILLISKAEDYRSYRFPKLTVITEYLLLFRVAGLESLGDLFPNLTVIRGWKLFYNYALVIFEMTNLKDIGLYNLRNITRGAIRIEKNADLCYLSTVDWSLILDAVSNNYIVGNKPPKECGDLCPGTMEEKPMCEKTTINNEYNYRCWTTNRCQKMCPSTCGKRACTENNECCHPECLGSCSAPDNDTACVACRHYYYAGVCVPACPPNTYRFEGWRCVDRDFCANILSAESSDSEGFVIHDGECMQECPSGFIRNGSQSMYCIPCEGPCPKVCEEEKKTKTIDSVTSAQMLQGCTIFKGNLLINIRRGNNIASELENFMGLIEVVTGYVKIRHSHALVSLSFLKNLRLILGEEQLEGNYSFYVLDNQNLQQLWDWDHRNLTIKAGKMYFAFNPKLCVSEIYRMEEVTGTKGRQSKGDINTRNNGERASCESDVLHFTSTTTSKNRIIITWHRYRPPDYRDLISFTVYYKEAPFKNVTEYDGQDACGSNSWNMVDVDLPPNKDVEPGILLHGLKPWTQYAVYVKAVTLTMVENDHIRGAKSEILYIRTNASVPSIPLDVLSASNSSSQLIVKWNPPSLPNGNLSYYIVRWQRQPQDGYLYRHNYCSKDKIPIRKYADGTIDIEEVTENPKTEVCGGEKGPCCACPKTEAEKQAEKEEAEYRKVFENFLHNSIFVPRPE
Insulin-like growth factor 1 receptor (Homo sapiens), sequence (P08069 741-1367 limits assumed): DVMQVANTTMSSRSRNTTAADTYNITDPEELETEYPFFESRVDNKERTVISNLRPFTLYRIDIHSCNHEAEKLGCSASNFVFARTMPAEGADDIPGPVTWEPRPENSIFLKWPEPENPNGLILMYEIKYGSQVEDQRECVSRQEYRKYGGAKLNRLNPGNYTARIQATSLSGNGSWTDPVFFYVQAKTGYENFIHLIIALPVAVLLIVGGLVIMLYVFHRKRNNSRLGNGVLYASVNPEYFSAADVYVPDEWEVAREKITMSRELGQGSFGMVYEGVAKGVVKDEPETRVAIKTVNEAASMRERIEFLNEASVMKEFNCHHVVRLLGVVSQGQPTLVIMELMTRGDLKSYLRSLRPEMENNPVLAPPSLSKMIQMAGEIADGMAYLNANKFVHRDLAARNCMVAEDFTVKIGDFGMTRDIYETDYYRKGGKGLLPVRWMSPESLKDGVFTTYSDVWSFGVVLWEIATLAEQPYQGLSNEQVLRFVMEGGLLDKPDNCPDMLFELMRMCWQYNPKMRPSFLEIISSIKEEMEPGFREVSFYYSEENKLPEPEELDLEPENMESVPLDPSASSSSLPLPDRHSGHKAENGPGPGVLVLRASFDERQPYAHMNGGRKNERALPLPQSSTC

[12] = molecular target: Serine/threonine-protein kinase STK11 (Homo sapiens) (UniProt Q15831); test: Inhibition of recombinant full-length human LKB1 at 1 uM using LSNLYHQGKFLQTFCGSPLYRRR as substrate after 40 mins in presence of [gamma-33P]ATP by scintillation counting method
Serine/threonine-protein kinase STK11 (Homo sapiens), sequence (Q15831 whole entry): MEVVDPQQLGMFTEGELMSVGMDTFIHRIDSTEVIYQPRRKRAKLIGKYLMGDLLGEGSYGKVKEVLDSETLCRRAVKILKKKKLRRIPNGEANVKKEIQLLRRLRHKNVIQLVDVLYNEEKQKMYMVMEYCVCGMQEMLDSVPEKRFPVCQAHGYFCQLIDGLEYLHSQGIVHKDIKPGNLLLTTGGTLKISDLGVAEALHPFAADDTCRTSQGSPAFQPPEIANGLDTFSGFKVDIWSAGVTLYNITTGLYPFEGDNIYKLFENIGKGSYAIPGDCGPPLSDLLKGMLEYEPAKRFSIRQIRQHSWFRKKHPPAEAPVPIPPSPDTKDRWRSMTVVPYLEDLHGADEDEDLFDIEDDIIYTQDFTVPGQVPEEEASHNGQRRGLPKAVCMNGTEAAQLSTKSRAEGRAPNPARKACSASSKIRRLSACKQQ

[13] = molecular target: Mitogen-activated protein kinase kinase kinase 2 (Homo sapiens) (UniProt Q9Y2U5); test: Inhibition of recombinant full-length human MEKK2 at 1 uM using myelin basic protein as substrate after 40 mins in presence of [gamma-33P]ATP by scintillation counting method
Mitogen-activated protein kinase kinase kinase 2 (Homo sapiens), sequence (Q9Y2U5 whole entry): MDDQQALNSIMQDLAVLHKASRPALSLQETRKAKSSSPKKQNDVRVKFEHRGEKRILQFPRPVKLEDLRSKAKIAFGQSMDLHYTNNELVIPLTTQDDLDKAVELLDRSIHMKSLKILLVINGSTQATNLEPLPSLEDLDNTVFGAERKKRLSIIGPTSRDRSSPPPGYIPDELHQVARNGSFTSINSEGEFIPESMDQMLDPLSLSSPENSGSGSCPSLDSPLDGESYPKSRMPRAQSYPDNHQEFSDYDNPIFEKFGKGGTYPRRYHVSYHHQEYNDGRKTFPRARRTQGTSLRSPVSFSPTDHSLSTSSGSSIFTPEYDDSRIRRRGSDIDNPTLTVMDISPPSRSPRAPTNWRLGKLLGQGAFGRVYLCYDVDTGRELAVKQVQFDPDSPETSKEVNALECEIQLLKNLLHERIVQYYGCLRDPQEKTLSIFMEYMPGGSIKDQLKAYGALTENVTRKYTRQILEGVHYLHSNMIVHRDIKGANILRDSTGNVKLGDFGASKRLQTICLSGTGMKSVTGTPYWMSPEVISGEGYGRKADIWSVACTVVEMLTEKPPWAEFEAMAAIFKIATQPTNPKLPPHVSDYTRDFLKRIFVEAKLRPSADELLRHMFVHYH

[14] = molecular target: Ribosomal protein S6 kinase alpha-5 (Homo sapiens) (UniProt O75582); test: Inhibition of recombinant human MSK1 (2 to end residues) at 1 uM using GRPRTSSFAEGKK as substrate after 40 mins in presence of [gamma-33P]ATP by scintillation counting method
[15] = molecular target: Serine/threonine-protein kinase 24 (Homo sapiens) (UniProt Q9Y6E0); test: Inhibition of recombinant human MST3 (1 to 304 residues) at 1 uM using ERMRPRKRQGSVRRRV as substrate after 40 mins in presence of [gamma-33P]ATP by scintillation counting method
[16] = molecular target: Myosin-IIIb (Homo sapiens) (UniProt Q8WXR4); test: Inhibition of recombinant human MYO3B (1 to 326 residues) at 1 uM using RLGRDKYKTLRQIRQ as substrate after 40 mins in presence of [gamma-33P]ATP by scintillation counting method
[17] = tested on: PI3-kinase p110-alpha/p85-alpha (Homo sapiens), P27986+P42336 [E545K]; test: Inhibition of recombinant full-length human p110a E545K mutant/p85a at 1 uM using phosphatidylinositol 4,5-bisphosphate as substrate after 40 mins in presence of [gamma-33P]ATP by scintillation counting method; assay type: protein-complex assay
[18] = tested on: PI3-kinase p110-alpha/p85-alpha (Homo sapiens), P27986+P42336 [H1047R]; test: Inhibition of recombinant full-length human p110a H1047R mutant/p85a at 1 uM using phosphatidylinositol 4,5-bisphosphate as substrate after 40 mins in presence of [gamma-33P]ATP by scintillation counting method; assay type: protein-complex assay
[19] = molecular target: Phosphatidylinositol 5-phosphate 4-kinase type-2 alpha (Homo sapiens) (UniProt P48426); test: Inhibition of recombinant full-length human PIP4K2alpha at 1 uM using phosphatidylinositol 5-phosphate/phosphatidylserine as substrate after 40 mins in presence of [gamma-33P]ATP by scintillation counting method
Phosphatidylinositol 5-phosphate 4-kinase type-2 alpha (Homo sapiens), sequence (P48426 whole entry): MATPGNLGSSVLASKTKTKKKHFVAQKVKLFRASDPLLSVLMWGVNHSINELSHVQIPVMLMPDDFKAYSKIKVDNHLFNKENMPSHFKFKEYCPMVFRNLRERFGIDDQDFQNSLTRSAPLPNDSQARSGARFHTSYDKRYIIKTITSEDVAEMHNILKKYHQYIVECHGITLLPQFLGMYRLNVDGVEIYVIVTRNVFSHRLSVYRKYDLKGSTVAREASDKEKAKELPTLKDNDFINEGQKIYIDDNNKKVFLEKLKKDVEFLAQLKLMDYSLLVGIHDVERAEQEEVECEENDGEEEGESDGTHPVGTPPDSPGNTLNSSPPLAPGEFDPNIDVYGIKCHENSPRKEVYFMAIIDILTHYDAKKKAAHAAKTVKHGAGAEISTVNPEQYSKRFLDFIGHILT

[20] = molecular target: Protein kinase C alpha type (Homo sapiens) (UniProt P17252); test: Inhibition of recombinant full-length human PKCalpha at 1 uM using histone H1 as substrate after 40 mins in presence of [gamma-33P]ATP by scintillation counting method
[21] = molecular target: Protein kinase C beta type (Homo sapiens) (UniProt P05771); test: Inhibition of recombinant human PKCbeta1 (2 to end residues) at 1 uM using histone H1 as substrate after 40 mins in presence of [gamma-33P]ATP by scintillation counting method
[22] = molecular target: Serine/threonine-protein kinase D2 (Homo sapiens) (UniProt Q9BZL6); test: Inhibition of recombinant full-length human PKD2 at 1 uM using KKLNRTLSVA as substrate after 40 mins in presence of [gamma-33P]ATP by scintillation counting method
[23] = molecular target: Serine/threonine-protein kinase Sgk1 (Homo sapiens) (UniProt O00141); test: Inhibition of recombinant human SGK (60 to end residues) at 1 uM using GRPRTSSFAEGKK as substrate after 40 mins in presence of [gamma-33P]ATP by scintillation counting method
Serine/threonine-protein kinase Sgk1 (Homo sapiens), sequence (O00141 whole entry, the tested form may be a part): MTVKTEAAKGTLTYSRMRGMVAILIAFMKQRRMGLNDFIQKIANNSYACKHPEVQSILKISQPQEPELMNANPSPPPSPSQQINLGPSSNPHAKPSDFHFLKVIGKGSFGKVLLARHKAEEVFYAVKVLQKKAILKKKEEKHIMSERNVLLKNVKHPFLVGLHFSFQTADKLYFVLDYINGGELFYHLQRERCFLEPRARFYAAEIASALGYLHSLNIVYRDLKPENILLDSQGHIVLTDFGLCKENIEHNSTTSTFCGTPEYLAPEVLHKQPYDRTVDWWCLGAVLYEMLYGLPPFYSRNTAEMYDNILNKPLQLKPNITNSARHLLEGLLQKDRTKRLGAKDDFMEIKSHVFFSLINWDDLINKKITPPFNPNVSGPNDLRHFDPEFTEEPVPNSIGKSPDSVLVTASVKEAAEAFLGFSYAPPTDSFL

[24] = molecular target: Serine/threonine-protein kinase WNK2 (Homo sapiens) (UniProt Q9Y3S1); test: Inhibition of recombinant human WNK2 (166 to 489 residues) at 1 uM using myelin basic protein as substrate after 40 mins in presence of [gamma-33P]ATP by scintillation counting method

In the case of `CS(=O)(=O)c1ccc(-n2nc(-c3cnc4[nH]ccc4c3)c3c(N)ncnc32)cc1`, the inhibition [1] is reported as -4%, the inhibition [2] is reported as 80% and the inhibition [3] is reported as 89%. For the same molecule, the inhibition [4] was 9%, the inhibition [5] was 3% and the inhibition [6] was 31%. The inhibition [7] was 3%, the inhibition [8] was -1% and the inhibition [9] was 2%. The inhibition [10] was 4%, the inhibition [11] was -2% and the inhibition [12] was -5%. The inhibition [13] was 5%, the inhibition [14] was 0% and the inhibition [15] was 13%. For the same molecule, the inhibition [16] was 5%, the inhibition [17] was 8% and the inhibition [18] was 16%. It also gave an inhibition [19] of -2%, an inhibition [20] of -1% and an inhibition [21] of 6%. For the same molecule, the inhibition [22] was 17%, the inhibition [23] was 2% and the inhibition [24] was 23%.
